This passage reports IC50 results from patent US20230257374A1, “NOVEL KRAS G12C PROTEIN INHIBITOR, PREPARATION METHOD THEREFOR, AND USE THEREOF” (INNOVENT BIOLOGICS (SUZHOU) CO., LTD., priority 2019, published 2023).

pIC50: −log10 of the molar value.

For this test, the target named is T1, KRAS G12C protein (Homo sapiens, UniProt P01116, G12C).
T1 construct: H358 cells (ATCC, CRL-5807) expressing KRAS G12C protein; host or cells: H358 (NCI-H358) cells
T1 sequence (P01116 1-188 isoform P01116-2 G12C): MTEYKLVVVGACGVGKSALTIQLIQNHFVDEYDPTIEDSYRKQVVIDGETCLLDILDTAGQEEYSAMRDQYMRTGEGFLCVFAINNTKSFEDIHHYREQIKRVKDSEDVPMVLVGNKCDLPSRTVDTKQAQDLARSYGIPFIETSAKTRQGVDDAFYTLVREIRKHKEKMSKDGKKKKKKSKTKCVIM
Kind of test: ERK protein phosphorylation assay (p-ERK) in H358 cells. The class given is cell-based. Further details: scale not given here. Conditions: H358 cells expressing KRAS G12C protein, 3 h incubation with compound; read-out: IC50, inhibiting phosphorylation of KRAS G12C protein-mediated downstream signaling (p-ERK). The method, then:
The cells were cultured in a 5% CO2 cell incubator for 16 h. The serially diluted compound was added to the cell medium with Echo550 at a final DMSO concentration of 0.5%, and the incubation was continued for 3 h. Then 8% paraformaldehyde (Solarbio, P1112) was added at 40 μL/well, followed by incubation at room temperature for 20 min. After one washing with PBS, cold 100% methanol was added at 40 μL/well for permeabilization for 10 min. […] Washing with PBST was performed 3 times, with 2 min of incubation for each washing. […] Washing with PBST was performed 3 times, with 2 min of incubation for each washing. Finally, the cell culture plate was inverted and centrifuged at 1000 rpm for 1 min, after which fluorescence signals were read using Odyssey CLx.
As usually defined, the pIC50 is the negative decadic logarithm of the IC50, by convention in mol/L. Consider `C=CC(=O)N1CCN(c2nc(OC[C@@H]3CCCN3[13CH3])nc3c2CCN(c2cccc4cccc(C)c24)C3)C[C@@H]1CC#N` [Compound 26, 2-((S)-1-acryloyl-4-(2-(((S)-1-(methyl-^13C)pyrrolidin-2-yl)methoxy)-7-(8-methylnaphthalen-1-yl)-5,6,7,8-tetrahydropyrido[3,4-d]pyrimidin-4-yl)piperazin-2-yl)acetonitrile], for which the pIC50 was above 6.00.

For `C=CC(=O)N1CCN(c2nc(OC[C@@H]3CCCN3C)nc3c2CCN(c2cccc4cccc([14CH3])c24)C3)C[C@@H]1CC#N` [Compound 12, 2-((S)-1-acryloyl-4-(7-(8-(methyl-^14C)naphthalen-1-yl)-2-(((S)-1-methylpyrrolidin-2-yl)methoxy)-5,6,7,8-tetrahydropyrido[3,4-d]pyrimidin-4-yl)piperazin-2-yl)acetonitrile], the pIC50 was above 6.00.

Consider `C=CC(=O)N1CCN(c2nc(OC[C@@H]3CCCN3C)nc3c2CCN(c2cccc4cccc([11CH3])c24)C3)C[C@@H]1CC#N` [Compound 6, 2-((S)-1-acryloyl-4-(7-(8-(methyl-^11C)naphthalen-1-yl)-2-(((S)-1-methylpyrrolidin-2-yl)methoxy)-5,6,7,8-tetrahydropyrido[3,4-d]pyrimidin-4-yl)piperazin-2-yl)acetonitrile], for which the pIC50 is above 6.00.

On to `[2H]C([2H])([2H])N1CCC[C@H]1COc1nc2c(c(N3CCN(C(=O)C(=C)F)[C@@H](CC#N)C3)n1)CCN(c1cccc3cccc([14CH3])c13)C2` [Compound 29, 2-((S)-1-(2-fluoroacryloyl)-4-(2-(((S)-1-(methyl-d3)pyrrolidin-2-yl)methoxy)-7-(8-(methyl-^14C)naphthalen-1-yl)-5,6,7,8-tetrahydropyrido[3,4-d]pyrimidin-4-yl)piperazin-2-yl)acetonitrile], for which the pIC50 is above 6.00.

Regarding `C=C(F)C(=O)N1CCN(c2nc(OC[C@@H]3CCCN3C)nc3c2CCN(c2cccc4cccc([14CH3])c24)C3)C[C@@H]1CC#N` [Compound 13, 2-((S)-1-(2-fluoroacryloyl)-4-(7-(8-(methyl-^14C)naphthalen-1-yl)-2-(((S)-1-methylpyrrolidin-2-yl)methoxy)-5,6,7,8-tetrahydropyrido[3,4-d]pyrimidin-4-yl)piperazin-2-yl)acetonitrile], the negative-log IC50 (pIC50) is above 6.00.

As for `C=C(F)C(=O)N1CCN(c2nc(OC[C@@H]3CCCN3C)nc3c2CCN(c2cccc4cccc([11CH3])c24)C3)C[C@@H]1CC#N` [Compound 9, 2-((S)-1-(2-fluoroacryloyl)-4-(7-(8-(methyl-^11C)naphthalen-1-yl)-2-(((S)-1-methylpyrrolidin-2-yl)methoxy)-5,6,7,8-tetrahydropyrido[3,4-d]pyrimidin-4-yl)piperazin-2-yl)acetonitrile], the pIC50 was above 6.00.

`[2H]C([2H])([2H])C([2H])([2H])N1CCC[C@H]1COc1nc2c(c(N3CCN(C(=O)C=C)[C@@H](CC#N)C3)n1)CCN(c1cccc3cccc(C)c13)C2` [Compound 35, 2-((S)-1-acryloyl-4-(2-(((S)-1-(ethyl-d5)pyrrolidin-2-yl)methoxy)-7-(8-methylnaphthalen-1-yl)-5,6,7,8-tetrahydropyrido[3,4-d]pyrimidin-4-yl)piperazin-2-yl)acetonitrile]: the pIC50 is above 6.00.

With `[2H]C([2H])([2H])c1cccc2cccc(N3CCc4c(nc(OC[C@@H]5CCCN5C)nc4N4CCN(C(=O)/C=C/CNC5CC5)[C@@H](C)C4)C3)c12` [Compound 3, (E)-4-(cyclopropylamino)-1-((S)-2-methyl-4-(7-(8-(methyl-d3)naphthalen-1-yl)-2-(((S)-1-methylpyrrolidin-2-yl)methoxy)-5,6,7,8-tetrahydropyrido[3,4-d]pyrimidin-4-yl)piperazin-1-yl)-2-buten-1-one], the pIC50 was above 6.00.

As to `[2H]C([2H])([2H])CN1CCC[C@H]1COc1nc2c(c(N3CCN(C(=O)C=C)[C@@H](CC#N)C3)n1)CCN(c1cccc3cccc(Cl)c13)C2` [Compound 34, 2-((S)-1-acryloyl-4-(7-(8-chloronaphthalene-1-yl)-2-(((S)-1-(ethyl-2,2,2-d3)pyrrolidin-2-yl)methoxy)-5,6,7,8-tetrahydropyrido[3,4-d]pyrimidin-4-yl)piperazin-2-yl)acetonitrile], the negative logarithm of the IC50 (pIC50) was above 6.00.

For the molecule `[2H]C([2H])([2H])N1CCC[C@H]1COc1nc2c(c(N3CCN(C(=O)C=C)[C@@H](CC#N)C3)n1)CCN(c1cncc3cccc(Cl)c13)C2` [Compound 20, 2-((S)-1-acryloyl-4-(7-(5-chloroisoquinolin-4-yl)-2-(((S)-1-(methyl-d3)pyrrolidin-2-yl)methoxy)-5,6,7,8-tetrahydropyrido[3,4-d]pyrimidin-4-yl)piperazin-2-yl)acetonitrile], the pIC50 is above 6.00.

As for `[2H]C([2H])([2H])CN1CCC[C@H]1COc1nc2c(c(N3CCN(C(=O)C=C)[C@@H](CC#N)C3)n1)CCN(c1cccc3cccc(C)c13)C2` [Compound 33, 2-((S)-1-acryloyl-4-(2-(((S)-1-(ethyl-2,2,2-d3)pyrrolidin-2-yl)methoxy)-7-(8-methylnaphthalen-1-yl)-5,6,7,8-tetrahydropyrido[3,4-d]pyrimidin-4-yl)piperazin-2-yl)acetonitrile], the pIC50 was above 6.00.

As for `[2H]C([2H])([2H])N1CCC[C@H]1COc1nc2c(c(N3CCN(C(=O)C=C)[C@@H](CC#N)C3)n1)CCN(c1cccc3cccc([11CH3])c13)C2` [Compound 22, 2-((S)-1-acryloyl-4-(2-(((S)-1-(methyl-d3)pyrrolidin-2-yl)methoxy)-7-(8-(methyl-^11C)naphthalen-1-yl)-5,6,7,8-tetrahydropyrido[3,4-d]pyrimidin-4-yl)piperazin-2-yl)acetonitrile], the pIC50 was above 6.00.

For the molecule `[2H]C([2H])([2H])c1cccc2cccc(N3CCc4c(nc(OC[C@@H]5CCCN5C([2H])([2H])[2H])nc4N4CCN(C(=O)C=C)C[C@@H]4C)C3)c12` [Compound 24, 1-((S)-3-methyl-4-(7-(8-(methyl-d3)naphthalen-1-yl)-2-(((S)-1-(methyl-d3)pyrrolidin-2-yl)methoxy)-5,6,7,8-tetrahydropyrido[3,4-d]pyrimidin-4-yl)piperazin-1-yl)-2-propen-1-one], the pIC50 is above 6.00.

`[2H]C([2H])([2H])C([2H])(N1CCC[C@H]1COc1nc2c(c(N3CCN(C(=O)C=C)[C@@H](CC#N)C3)n1)CCN(c1cccc3cccc(Cl)c13)C2)C([2H])([2H])[2H]` [Compound 38, 2-((S)-1-acryloyl-4-(7-(8-chloronaphthalene-1-yl)-2-(((S)-1-(isopropyl-d7)pyrrolidin-2-yl)methoxy)-5,6,7,8-tetrahydropyrido[3,4-d]pyrimidin-4-yl)piperazin-2-yl)acetonitrile]: the pIC50 was above 6.00.

As to `[2H]C([2H])([2H])c1cccc2cccc(N3CCc4c(nc(OC[C@@H]5CCCN5C)nc4N4CCN(C(=O)C(=C)F)[C@@H](CC#N)C4)C3)c12` [Compound 2, 2-((S)-1-(2-fluoroacryloyl)-4-(7-(8-(methyl-d3)naphthalen-1-yl)-2-(((S)-1-methylpyrrolidin-2-yl)methoxy)-5,6,7,8-tetrahydropyrido[3,4-d]pyrimidin-4-yl)piperazin-2-yl)acetonitrile], the pIC50 is above 6.00.

`[2H]C([2H])([2H])c1cccc2cccc(N3CCc4c(nc(OC[C@@H]5CCCN5C([2H])([2H])[2H])nc4N4CCN(C(=O)C(=C)F)C[C@@H]4C)C3)c12` [Compound 23, 2-fluoro-1-((S)-3-methyl-4-(7-(8-(methyl-d3)naphthalen-1-yl)-2-(((S)-1-(methyl-d3)pyrrolidin-2-yl)methoxy)-5,6,7,8-tetrahydropyrido[3,4-d]pyrimidin-4-yl)piperazin-1-yl)-2-propen-1-one]: the pIC50 is above 6.00.

`[2H]C([2H])([2H])c1cccc2cccc(N3CCc4c(nc(OC[C@@H]5CCCN5C([2H])([2H])[2H])nc4N4CCN(C(=O)C=C)[C@@H](C)C4)C3)c12` [Compound 21, 1-((S)-2-methyl-4-(7-(8-(methyl-d3)naphthalen-1-yl)-2-(((S)-1-(methyl-d3)pyrrolidin-2-yl)methoxy)-5,6,7,8-tetrahydropyrido[3,4-d]pyrimidin-4-yl)piperazin-1-yl)-2-propen-1-one]: the negative logarithm of the IC50 (pIC50) was above 6.00.

For the molecule `C=C(F)C(=O)N1CCN(c2nc(OC[C@@H]3CCCN3C)nc3c2CCN(c2cncc4cccc([13CH3])c24)C3)C[C@@H]1CC#N` [Compound 16, 2-((S)-1-(2-fluoroacryloyl)-4-(7-(5-(methyl-^13C)isoquinolin-4-yl)-2-(((S)-1-methylpyrrolidin-2-yl)methoxy)-5,6,7,8-tetrahydropyrido[3,4-d]pyrimidin-4-yl)piperazin-2-yl)acetonitrile], the negative-log IC50 (pIC50) was above 6.00.

In the case of `[2H]C([2H])([2H])c1cccc2cncc(N3CCc4c(nc(OC[C@@H]5CCCN5C)nc4N4CCN(C(=O)C=C)[C@@H](CC#N)C4)C3)c12` [Compound 4, 2-((S)-1-acryloyl-4-(7-(5-(methyl-d3)isoquinolin-4-yl)-2-(((S)-1-methylpyrrolidin-2-yl)methoxy)-5,6,7,8-tetrahydropyrido[3,4-d]pyrimidin-4-yl)piperazin-2-yl)acetonitrile], the pIC50 was above 6.00.

Take `C=CC(=O)N1CCN(c2nc(OC[C@@H]3CCCN3C)nc3c2CCN(c2cncc4cccc([13CH3])c24)C3)C[C@@H]1CC#N` [Compound 15, 2-((S)-1-acryloyl-4-(7-(5-(methyl-^13C)isoquinolin-4-yl)-2-(((S)-1-methylpyrrolidin-2-yl)methoxy)-5,6,7,8-tetrahydropyrido[3,4-d]pyrimidin-4-yl)piperazin-2-yl)acetonitrile]: the pIC50 was above 6.00.
